Test results published in patent US7732468B2, “3-aryl-6-aryl-[ 1,2,4]triazolo[3,4-b][1,3,4]thiadiazoles and related compounds as activators of caspases and inducers of apoptosis and the use thereof” (Cytovia, Inc., priority 2006, dated 2010).
pEC50: −log10 of the molar value.

Assays:
Format in all cases: cell-based
[1] = system: human Burkitt's lymphoma cell line Namalwa; assay: Inhibition of cell proliferation (GI50) in Namalwa cells; conditions: Burkitts lymphoma cell, 48 h incubation
Experimental: (§1) Human breast cancer cell lines T-47D, MX1 and MDAMB435, human colon carcinoma cell line HCT116, human leukemia cell line K562, human lymphoma cell line Raji, human B cell lymphoblastoid cell line Ramos, and human Burkitt's lymphoma cell line Namalwa were grown and harvested as in Example 14. An aliquot of […] of cells (4.4×10^4 cells/mL) was added to a well of a 96-well microtiter plate containing 5 μL of a 10% DMSO in RPMI-1640 media solution containing 10 nM to 100 μM of 6-(3,4-dimethoxyphenyl)-3-(2-methoxyphenyl)-[1,2,4]triazolo[3,4-b][1,3,4]thiadiazole (1 nM to 10 μM final). An aliquot of 45 μL of cells was added to a well of a 96-well microtiter plate containing 5 μL of a 10% DMSO in RPMI-1640 media solution without compound as the control sample for maximal cell proliferation (LMax). The samples were mixed by agitation and then incubated at 37° C. for 48 h in a 5% CO2-95% humidity incubator. After incubation, the samples were removed from the incubator and 25 μL of CellTiter-Glo™ reagent (Promega) was added. The samples were mixed by agitation and incubated at room temperature for 10-15 min. Plates were then read using a luminescent plate reader (Model SPECTRAfluor Plus, Tecan) to give Ltest values.
(§2) The samples were mixed by agitation and then incubated at 37° C. for 0.5 h in a 5% CO2-95% humidity incubator. After incubation, the samples were removed from the incubator and 25 μL of CellTiter-Glo™ reagent (Promega) was added. The samples were mixed by agitation and incubated at […] 10-15 min at room temperature in a 5% CO2-95% humidity incubator. Fluorescence was read as above, (LStart) defining luminescence for initial cell number used as baseline in GI50 determinations.
(§3) GI50 (dose for 50% inhibition of cell proliferation) is the concentration where [(LTest−LStart)/(LMax−LStart)]=0.5.

[2] = system: human B cell lymphoblastoid cell line Ramos; assay: Caspase cascade activation in Ramos cells; conditions: 48 h incubation, read-out: caspase potency EC50 RAMOS
Procedure, shortened: (§4)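 EC50 reflects the ratio of net RFU in compound-treated wells to untreated control, where net RFU is the 3 h reading minus the T=0 control background. Cells were incubated 48 h with 0.016–10 μM compound before Ac-DEVD-R110 addition.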

[3] = system: human colon carcinoma cell line HCT116; assay: Caspase cascade activation in HCT116 cells; conditions: HCT-116, 48 h incubation, read-out: caspase potency EC50 HCT116
Procedure, shortened: as §4

[4] = system: human lymphoma cell line Raji; assay: Caspase cascade activation in Raji cells; conditions: RAJ1 cells, 48 h incubation, read-out: caspase potency EC50 RAJ1
Procedure, shortened: as §4

[5] = system: human leukemia cell line K562; assay: Inhibition of cell proliferation (GI50) in K562 cells; conditions: 48 h incubation
Experimental: as §1, §2, §3

[6] = system: Human breast cancer cell lines MX1; assay: Inhibition of cell proliferation (GI50) in MX1 cells; conditions: 48 h incubation
Experimental: as §1, §2, §3

[7] = system: human cancer cell line H1299; assay: Caspase cascade activation in H1299 cells; conditions: NCI-H1299, 48 h incubation, read-out: caspase potency EC50 H1299
Experimental: Human breast cancer cell lines T-47D, human hepatocellular carcinoma cell line SNU398, human colon carcinoma cell line HCT116, human cancer cell line H11299, human Burkitt's lymphoma cell line Namalwa, human lymphoma cell line Raji, and human B cell lymphoblastoid cell line Ramos were grown according to media component mixtures designated by American Type Culture Collection+10% FCS (Invitrogen Corporation), in a 5% CO2-95% humidity incubator at 37° C. T-47D and H1299 cells were maintained at a cell density between 50 and 80% confluency at a cell density of 0.1 to 0.6×10^6 cells/mL. Cells were harvested at 600×g and resuspended at 0.65×10^6 cells/mL into appropriate media+10% FCS. An aliquot of 22.5 μL of cells was added to a well of a 384-well microtiter plate containing 2.5 μL of a 10% DMSO in RPMI-1640 media solution containing 0.16 to 100 μM of 6-(3,4-dimethoxyphenyl)-3-(2-methoxyphenyl)-[1,2,4]triazolo[3,4-b][1,3,4]thiadiazole or other test compound (0.016 to 10 μM final). An aliquot of 22.5 μL of cells was added to a well of a 384-well microtiter plate containing 2.5 μL of a 10% DMSO in RPMI-1640 media solution without test compound as the control sample. The samples were mixed by agitation and then incubated at 37° C. for 48 h in a 5% CO2-95% humidity incubator. After incubation, the samples were removed from the incubator and 25 μL of a solution containing 14 μM of N-(Ac-DEVD)-N′-ethoxycarbonyl-R110 (SEQ ID No.:1) fluorogenic substrate (Cytovia, Inc.; WO99/18856), 20% sucrose (Sigma), 20 mM DTT (Sigma), 200 mM NaCl (Sigma), 40 mM Na PIPES buffer pH 7.2 (Sigma), and 500 μg/mL lysolecithin (Calbiochem) was added. The samples were mixed by agitation and incubated at room temperature. Using a fluorescent plate reader (Model SPECTRAfluor Plus, Tecan), an initial reading (T=0) was made approximately 1-2 min after addition of the substrate solution, employing excitation at 485 nm and emission at 530 nm, to determine the background fluorescence of the control sample. After the 3 h incubation, the samples were read for fluorescence as above (T=3 h).
The Relative Fluorescence Unit values (RFU) were used to calculate the sample readings as follows: RFU(T=3h)−Control RFU(T=0)=Net RFU(T=3h)
The activity of caspase cascade activation was determined by the ratio of the net RFU value for 6-(3,4-dimethoxyphenyl)-3-(2-methoxyphenyl)-[1,2,4]triazolo[3,4-b][1,3,4]thiadiazole (Example I) or other test compound to that of control samples. The EC50 (nM) was determined by a sigmoidal dose-response calculation (Prism 3.0, GraphPad Software Inc.).

[8] = system: Human breast cancer cell lines T-47D; assay: Inhibition of cell proliferation (GI50, CellTiter-Glo) in T-47D cells; conditions: T47D cells, 48 h incubation
Experimental: as §1, §2, §3

[9] = system: human B cell lymphoblastoid cell line Ramos; assay: Inhibition of cell proliferation (GI50) in Ramos cells; conditions: 48 h incubation
Experimental: as §1, §2, §3

[10] = system: human Burkitt's lymphoma cell line Namalwa; assay: Caspase cascade activation in Namalwa cells; conditions: Burkitts lymphoma cell, 48 h incubation, read-out: caspase potency EC50 Namalwa
Procedure, shortened: as §4

[11] = system: human lymphoma cell line Raji; assay: Inhibition of cell proliferation (GI50) in Raji cells; conditions: 48 h incubation
Experimental: as §1, §2, §3

[12] = system: human colon carcinoma cell line HCT116; assay: Inhibition of cell proliferation (GI50) in HCT116 cells; conditions: HCT 116 cells, 48 h incubation
Experimental: as §1, §2, §3

[13] = system: human hepatocellular carcinoma cell line SNU398; assay: Caspase cascade activation in SNU398 cells; conditions: SNU-398, 48 h incubation, read-out: caspase potency EC50 SNU398
Procedure, shortened: as §4

[14] = system: Human breast cancer cell lines T-47D; assay: Caspase cascade activation (Ac-DEVD-R110 fluorogenic substrate) in T-47D cells; conditions: T47D cells, 48 h incubation, read-out: caspase potency EC50 T47D
Procedure, shortened: as §4

[15] = system: Human breast cancer cell lines MDAMB435; assay: Inhibition of cell proliferation (GI50) in MDAMB435 cells; conditions: MDA MB 435 cells, 48 h incubation
Experimental: as §1, §2, §3

GI50 [1] [nM] | pEC50 [2] | pEC50 [3] | pEC50 [4] | GI50 [5] [nM] | GI50 [6] [nM] | pEC50 [7] | GI50 [8] [nM] | GI50 [9] [nM] | pEC50 [10] | GI50 [11] [nM] | GI50 [12] [nM] | pEC50 [13] | pEC50 [14] | GI50 [15] [nM] | Structure (SMILES)
7870 | 6.63 | 5.30 | 6.56 | 2490 | 4000 | 5.52 | 3850 | 3000 | 6.60 | 9400 | 6220 | 6.29 | 6.25 | 894 | COc1ccc(-c2nn3c(-c4ccccc4C)nnc3s2)cc1OC [E, 6-(3,4-Dimethoxyphenyl)-3-o-tolyl-[1,2,4]triazolo[3,4-b][1,3,4]thiadiazole]
9040 | 5.28 | 5.29 | 5.28 | 2730 | 4000 | 5.27 | 4030 | 4000 | 5.27 | 8000 | 7920 | 5.35 | 5.57 | 1070 | COc1ccc(-c2nn3c(-c4ccccc4Cl)nnc3s2)cc1OC [F, 3-(2-Chlorophenyl)-6-(3,4-dimethoxyphenyl)-[1,2,4]triazolo[3,4-b][1,3,4]thiadiazole]
520 | 6.60 | 6.27 | 6.30 | 626 | 400 | 6.13 | 217 | 120 | 6.46 | 700 | 844 | 6.58 | 6.25 | 48 | COc1ccccc1-c1nnc2sc(-c3ccc(Br)cc3)nn12 [H, 6-(4-Bromophenyl)-3-(2-methoxyphenyl)-[1,2,4]triazolo[3,4-b][1,3,4]thiadiazole]
2000 | 6.46 | 6.28 | 6.28 | 2080 | 1030 | 6.09 | 261 | 2000 | 6.39 | 2000 | 2000 | 6.52 | 6.25 | 136 | COc1ccc(-c2nn3c(-c4ccccc4OC)nnc3s2)cc1OC [I, 6-(3,4-dimethoxyphenyl)-3-(2-methoxyphenyl)-[1,2,4]triazolo[3,4-b][1,3,4]thiadiazole]
